Assay results taken from US20030060438A1, “Oligonucleotides and other modulators of the NK-1 receptor pathway and therapeutic uses thereof” (priority 2000, published 2003).

How the values were obtained:
Format in all cases: in vivo, rat
NK-1 receptor [1] = experiment: Neuropathic pain model (sciatic nerve constriction), mechanical allodynia by von Frey hairs, intrathecal oligonucleotide
Procedure: Neuropathic pain is a continuous, permanent pain that results from nerve damage. One common feature of neuropathic pain is mechanical allodyina (a painful response to a non-painful stimulus). Humans with neuropathic pain cannot wear clothing on affected regions of the skin or cannot stand in air currents, because their sensitivity is so profound. Neuropathic pain was induced by constriction of the sciatic nerve. Mechanical response thresholds (grams of force) were assessed by application of von Frey hairs to the plantar surface of the ipsilateral hind paw for all groups prior to sciatic nerve constriction surgery (baseline values: B). Oligonucleotides or ASCF control ([…]) via Alzet® minipumps attached to intrathecal catheters for spinal delivery. […] Statistical analyses on mechanical thresholds were performed using the non-parametric Friedman's repeated measures analysis of variance on ranks followed by Wilcoxon signed rank test for post hoc comparisons. […] The lower panel illustrates the mechanical response thresholds are not affected in the contralateral hind paw.
Neuropathic pain was induced by constriction of the sciatic nerve. Mechanical response thresholds (grams of force) were assessed by application of von Frey hairs to the plantar surface of the ipsilateral hind paw for all groups prior to sciatic nerve constriction surgery (baseline values: B). Oligonucleotides or ASCF control ([…]) via Alzet® minipumps attached to intrathecal catheters for spinal delivery.
(§1) Neuropathic pain was induced by constriction of the sciatic nerve. Mechanical response thresholds (grams of force) were assessed by application of von Frey hairs to the plantar surface of the ipsilateral hind paw for all groups prior to sciatic nerve constriction surgery (baseline values: B). Oligonucleotides or ASCF control (artificial cerebral spinal fluid) was administered for 72 h by continuous infusion (2 micro grams/microlitres/h) via Alzet® minipumps attached to intrathecal catheters for spinal delivery starting 6 days following nerve constriction (once the mechanical allodynia was established in all groups).
as §1, with “6 days” for “72 h”, “(0.45” for “(2”, “7” for “6”

NK-1 receptor [2] = experiment: Mechanical response thresholds in naive rats, intrathecal oligonucleotide; conditions: no surgery; intrathecal 1 micro grams/microlitres/h, prolonged administration
Procedure: The effect of intrathecal administration of NK-1 receptor antisense oligonucleotide on mechanical response thresholds in naive rats is shown in FIG. 6.
Oligonucleotides or ASCF control (artificial cerebral spinal fluid) were administered for 2 days prior to surgery, and throughout the time course of testing, by continuous infusion (1 micro grams/microlitres/h) via Alzet® minipumps attached to intrathecal catheters for spinal delivery.

NK-1 receptor [3] = experiment: CFA ankle joint arthritis model, ankle circumference, systemic oligonucleotide; conditions: 300 micro grams/kg, Q12 h, intraperitoneal from 2 days prior to CFA
Procedure: Complete Freund's Adjuvant (CFA) injection (13.6 micro grams/25 microlitres) into the ankle joint of the rat produces two responses, an inflammatory response that begins within 24 hours and lasts approximately one week, and a later inflammatory response combined with symptoms modeling arthritis. Antisense (AS) oligonucleotide (300 micro grams/kg, Q12 h, intraperitoneal) or saline was administered for 2 days prior to CFA injection and throughout the time course of testing. In control animals CFA induces two phases of response as assessed by ankle circumference; the first is maximal at 48 h after injection and the second at day 18. […] Statistical analysis was performed using a two way ANOVA and post hoc analysis using the tukey's test.

NK-1 receptor [4] = experiment: CFA arthritis model, joint flexibility, systemic oligonucleotide; conditions: day 18 after CFA; 300 micro grams/kg, Q12 h, intraperitoneal
Procedure: Complete Freund's Adjuvant (CFA) was injected into the ankle joint of the rat and the flexibility of the affected joint was assessed on day 18 during the arthritic phase of the model. This was accomplished by measuring the difference between the extension and flexion of the affected joint. Antisense (AS) oligonucleotide (300 micro grams/kg, Q12 h, intraperitoneal) or saline was administered for 2 days prior to CFA injection and for the subsequent 18 days. […] Statistical analysis was performed using a one way ANOVA and post hoc analysis using the Dunnett's test.

NK-1 receptor [5] = experiment: CFA arthritis model, collagen breakdown products in plasma, systemic oligonucleotide; conditions: days 3 and 18 following CFA injection; 300 micro grams/kg, Q12 h, intraperitoneal
Procedure: Complete Freund's Adjuvant (CFA) was injected into the ankle joint of the rat and the levels of collagen breakdown products were assessed on days 3 and 18 following CFA injection. This was accomplished by measuring collagen degradation in the plasma of blood samples taken from the tail vein of rats while lightly anesthetized with halothane anesthesia. Antisense (AS) oligonucleotide (300 micro grams/kg, Q12 h, intraperitoneal) or saline was administered for 2 days prior to CFA injection and for the subsequent 18 days. […] (Pervious experiments have identified that the levels of collagen breakdown products are maximal at day 3-5 after CFA injection). Statistical analysis was performed using an unpaired t-test.

NK-1 receptor [6] = experiment: Zymosan model of inflammatory bowel disease, Evans blue plasma extravasation of the colon; conditions: 300 micro grams/kg, Q12 h, intraperitoneal for 6 days prior to rectal zymosan; Evans blue three hours after zymosan
Procedure: Inflammatory bowel disease (IBD) is a generic term used to describe major clinical entities including Crohn's disease and ulcerative colitis. IBD was simulated by rectal administration of zymosan, a complement-activating substance. Antisense (AS) oligonucleotide (300 micro grams/kg, Q12 h, intraperitoneal) or saline was administered for 6 days prior to zymosan administration. Three hours after administration of zymosan, rats are injected with Evans blue dye which enables the assessment of plasma extravasation of the colon (degree of inflammation). […] Statistical analysis was performed using an unpaired t-test.

NK-1 receptor [7] = experiment: Intradermal substance P-induced plasma extravasation in skin (Evans blue); conditions: 300 micro grams/kg, Q12 h, intraperitoneal for 6 days; intradermal substance P 6.7 nmol/100 microlitres
Procedure: Intradermal injection of substance P and neurokinin A produce a wheal and flare inflammatory reaction. Antisense (AS) oligonucleotide (300 micro grams/kg, Q12 h, intraperitoneal) or saline was administered for 6 days prior to experimentation. Substance P or neurokinin A was injected into the dermis of the skin (6.7 nmol/100 microlitres) after intravenous administration of evans blue dye which allows for assessment of neuropeptide-induced plasma extravasation. […] Statistical analysis was performed using an unpaired t-test.

[8] = intrathecal 2 micro grams/microlitres/h for 72 h starting 6 days following nerve constriction

For “5′gac gtt atc cat ttt ggg g3′ (antisense GACGTTATCCATTTTGGGG; listed as DNA, chemistry not fully specified) [NK-1 receptor antisense oligonucleotide used in all experiments]”, the “reversal of established mechanical allodynia, lower dose” value (NK-1 receptor [1]; intrathecal 0.45 micro grams/microlitres/h for 6 days starting 7 days following nerve constriction) was “had no effect in reversing the decrease in mechanical thresholds”, the “prevention of mechanical allodynia, delivery to sacral rather than lumbar spinal cord” value (NK-1 receptor [1]; intrathecal 1 micro grams/microlitres/h from 2 days prior to surgery, catheter just less than 1 cm from lumbar level) was “failed to prevent the development of allodynia” and the “mechanical response threshold, contralateral side” value (NK-1 receptor [1]; [8]) was “no effect”. The “reversal of established mechanical allodynia, ipsilateral hind paw” value (NK-1 receptor [1]; [8]) was “reversed allodynia”, the “mechanical response threshold, ipsilateral hind paw (prevention of mechanical allodynia)” value (NK-1 receptor [1]; intrathecal (lumbar) 1 micro grams/microlitres/h from 2 days prior to sciatic nerve constriction and throughout testing) was “did not show a decrease in their threshold of mechanical stimulation” and the “mechanical response (withdrawal) threshold of either hind limb in naive rats” value (NK-1 receptor [2]) was “had no effect”. For the same substance, the “magnitude of inflammation, measured as ankle circumference, first phase” value (NK-1 receptor [3]; first phase maximal at 48 h) was “less”, the “magnitude of inflammation, measured as ankle circumference, second phase” value (NK-1 receptor [3]; second phase maximal at day 18) was “less” and the “joint flexibility (difference between extension and flexion) compared to saline controls” value (NK-1 receptor [4]) was “significantly improved flexibility”. For the same substance, the “joint flexibility compared to naïve animals” value (NK-1 receptor [4]) was “not significantly different”, the “collagen breakdown products in plasma compared to saline controls” value (NK-1 receptor [5]) was “significant attenuation” and the “zymosan-induced plasma extravasation of the colon” value (NK-1 receptor [6]) was “significantly lower”. The “substance P-induced plasma extravasation (skin)” value (NK-1 receptor [7]) was “significantly reduced”.
